Reference: patent publication US20120122787A1, “METHODS FOR TREATING POLYCYSTIC KIDNEY DISEASE (PKD) OR OTHER CYST FORMING DISEASES” (priority 2009, published 2012)

Experiments:
HDAC5 nuclear export = assay: HDAC5-GFP nuclear export in transfected MEK cells; assay type: cell-based, mouse; settings: for fluid flow-induced HDAC5 nuclear export: GÖ6983 10 μM, GdCl3
Procedure: (§1) Confluent mouse embryonic kidney (MEK) cells were cultured for 1-2 additional days in the absence of interferon-γ to induce optimal differentiation (Nauli et al., 2003). Hanks' Balanced Salt Solution with 20.0 mM HEPES buffer (pH 7.4) and 1% bovine serum albumin was used for calcium imaging and cell culture media for the other experiments. Fluid flow was applied at 0.2 ml/min using a peristaltic pump in 35 mm dishes or 6-well plates, with tubings connected through two 18 Gauge needles at opposing sides of a well (FIG. 9A). Time-lapse imaging was performed on an Axiovert 200M inverted microscope (Karl Zeiss Microlmaging Inc., Thornwood, N.Y.) equipped with a 20×/0.8 NA Plan-Apochromat objective, a Pecon XL-3 environmental chamber (PeCon GmbH, Erbach, Germany) and an AxioCam HSm r1.1 digital monochrome camera (Karl Zeiss). In drug treatments, […] (Sigma-Aldrich, St. Louis, Mo.) was used at 100 nM, GÖ6983 (Sigma-Aldrich) at 10 μM, ionomycin (Sigma-Aldrich) at 1 μM, and GdCl3 (Sigma-Aldrich) at 20 μM.
To determine whether HDAC5 was exported from the nucleus in response to fluid flow, FLAG-MEF2C and HDAC5-GFP constructs were co-transfected into Pkd1^+/+ and Pkd1^−/− MEK cells, and both tagged proteins correctly localized to the nucleus. Stimulation of MEK cells with fluid flow for 30 min led to translocation of HDAC5-GFP, but not FLAG-MEF2C, from the nucleus in Pkd1^+/+. MEK cells, but not in Pkd1^−/− MEK cells (FIG. 2A). […] By contrast, a HDAC5-GFP mutant lacking the 14-3-3 phosphorylation sites (HDAC5^S250/489A) was not exported (FIG. 2C), consistent with a requirement for phosphorylation of these regulatory sites in fluid flow-induced nuclear export of HDAC5. HDAC5 nuclear export also failed in Pkd1^−/− MEK cells, cells treated with GdCl3 (FIG. 2C), or the PKC inhibitor GÖ6983, while treatment with PMA stimulated HDAC5 nuclear exit even without fluid flow (FIG. 2D).

[1] = system: HDAC5 phosphorylation (Ser489); assay: HDAC5 phosphorylation immunoblot in MEK cells without or with fluid flow; assay type: cell-based, mouse; settings: for fluid flow-induced HDAC5 phosphorylation: fluid flow 0.2 ml/min, GÖ6983 10 μM, GdCl3 20 μM; for HDAC5 phosphorylation in the absence of fluid flow: no fluid flow, PMA 100 nM, ionomycin 1 μM, phospho-specific antibody
Procedure: as §1
Whether fluid flow across monolayers of MEK cells led to endogenous HDAC5 phosphorylation was determined using a phospho-specific antibody against HDAC5 Ser489 site (equivalent of Ser498 of human HDAC5) (Bossuyt et al., 2008). While HDAC5 phosphorylation level was low prior to fluid flow onset, an increase in phosphorylation was observed 30 minutes after the start of fluid flow and maintained for several hours thereafter (FIGS. 1A and 1B). The increase in HDAC5 phosphorylation was accompanied by an increase in the level of total HDAC5 (FIGS. 12A, C), consistent with the flow-induced gene expression of HDAC5 observed in the microarray analysis (Table 2). […] By contrast, HDAC5 phosphorylation was induced by the calcium ionophore, ionomycin, in the absence of fluid flow (FIG. 1D, see also FIG. 20 for the quantification of HDAC5 phosphorylation levels under various conditions). Treatment with PMA, an activator of protein kinase C(PKC), stimulated HDAC5 phosphorylation in the absence of fluid flow, while the PKC inhibitor GÖ6983 inhibited flow-induced HDAC5 phosphorylation (FIGS. 1D and 20).

PKD^ws25/− mice = assay: SAHA treatment of PKDws25/− mice (mouse model of PKD); settings: 4 weeks
Procedure: PKD^ws25/− mice (Wu et al., 1998) were obtained from Albert Einstein College of Medicine (Bronx, N.Y.). PKD^ws25/− mice escape the embryonic lethality of the PKD^−/− phenotype, but recapitulate the human ADPKD phenotype in that they develop cysts early in life (Wu et al., 1998). Eight week old PKD^ws25/− mice (n=15 per group) were treated with 100 mg/kg vorinostat (SAHA) or vehicle (Veh). Animals were dosed daily by i.p. for 5 days followed by 2 days off, for a total of 4 weeks. […] At the end of study, animals were sacrificed and blood taken for analysis of blood urea nitrogen (BUN) levels using the manufacturer's protocol for Hitachi Urea Nitrogen (BUN) Reagent Set (Pointe Scientific, Inc., Canton, Mich.).

MIM = assay: Immunoblot of MIM in Pkd2−/− embryonic kidneys from TSA-treated mothers; assay type: in vivo, mouse; settings: TSA-treated vs DMSO-treated mothers
Procedure: (§2) Pkd2^+/− mice were originally provided by S. Somlo (Yale University, New Haven, Conn.) and Hdac5^−/− mice by E. Olson (University of Texas Southwestern Medical Center, Dallas, Tex.). To obtain embryos of various genotypes, the mutant mice were paired and the pregnant females were sacrificed on 18.5 DPC to collect embryonic kidneys. For TSA treatment experiments pregnant Pkd2^+/− females paired with Pkd2^+/− males were subcutaneously injected daily, from 10.5 dpc to 18.5 dpc with 0.5 μg TSA (Biomol, Enzo Life Sciences Inc., Farmingdale, N.Y.) per gram mouse body weight or DMSO (solvent of TSA) in phosphate buffered saline (PBS). At the end of this treatment, females were sacrificed and embryonic kidneys were collected.
(§3) To test further the possibility that reducing the activity of HDAC5 could suppress cyst formation in Pkd2^−/− embryos, trichostatin A (TSA), a chemical inhibitor against type I and II HDACs (Drummond et al., 2005), was injected into pregnant Pkd2+/− female mice from 10.5 dpc after mating with Pkd2+/− males, and embryonic kidneys were analyzed at 18.5 dpc.

Pkd2−/− embryos = assay: TSA injection of pregnant Pkd2+/- mice, histology of E18.5 embryonic kidneys; assay type: in vivo, mouse
Procedure: as §2, §3

MEF2C = assay: Immunoblot of MEF2C in Pkd2−/− embryonic kidneys from TSA-treated mothers; assay type: in vivo, mouse; settings: TSA-treated vs DMSO-treated mothers
Procedure: as §2, §3

[2] = system: PCK rat (a recessive PKD model); settings: Wang et al., 2008; cited from earlier work

COc1ccc2c(c1)c(C1=C(c3c[nH]c4ccccc34)C(=O)NC1=O)cn2CCCN(C)C [GÖ6983]
fluid flow-induced HDAC5 nuclear export (HDAC5 nuclear export): failed | fluid flow-induced HDAC5 phosphorylation [1]: inhibited

[Cl][Gd]([Cl])[Cl] [GdCl3]
fluid flow-induced HDAC5 nuclear export (HDAC5 nuclear export): failed | fluid flow-induced HDAC5 phosphorylation [1]: blocked

O=C(CCCCCCC(=O)Nc1ccccc1)NO [SAHA, suberoylanilide hydroxamic acid]
blood urea nitrogen (BUN) levels (PKD^ws25/− mice; 100 mg/kg i.p. daily 5 days on, 2 days off, compared to vehicle): significantly lower | animals lost (PKD^ws25/− mice; 100 mg/kg i.p., n=15 per group): one | renal tubular epithelial morphology (PKD^ws25/− mice; 100 mg/kg i.p., kidney images vs control): well organized, nearly normal epithelial morphology

CC(/C=C/C(=O)NO)=C\[C@@H](C)C(=O)c1ccc(N(C)C)cc1 [TSA, trichostatin A]
expression of MIM (MIM): drastically increased | kidney cyst formation in Pkd2−/− embryos (Pkd2−/− embryos; 0.5 μg TSA per gram body weight s.c. daily to mothers 10.5-18.5 dpc, compared to DMSO-injected mothers): drastically reduced | morphology of renal tubules in Pkd2+/+ embryonic kidneys (Pkd2−/− embryos; Pkd2+/+ embryos from TSA-injected mothers): did not affect | morphology of cyst lining cells in Pkd2−/− kidneys (Pkd2−/− embryos; TSA-treated mothers, as opposed to flat morphology of Pkd2−/− cyst lining cells): more normal cuboidal morphology | enhancement of expression of MEF2C (MEF2C): 4 fold

1-deamino-8-D-arginine vasopressin [dDAVP]
effect on cystic disease [2]: aggravated cystic disease

CCCCCCCCCCCCCC(=O)O[C@@H]1[C@@H](C)[C@@]2(O)[C@@H](C=C(CO)C[C@]3(O)C(=O)C(C)=C[C@@H]23)[C@@H]2C(C)(C)[C@]12OC(C)=O [PMA, 12-myristate 13-acetate]
HDAC5 nuclear exit without fluid flow (HDAC5 nuclear export; no fluid flow, 100 nM PMA): stimulated | HDAC5 phosphorylation in the absence of fluid flow [1]: stimulated

C[C@H](CCC(=O)O)C[C@H](C)C[C@H](C)C(=O)/C=C(\O)[C@H](C)C[C@H](C)C/C=C/[C@@H](C)[C@@H](O)[C@@H](C)[C@@H](O)C[C@@H]1CC[C@@](C)([C@H]2CC[C@@](C)([C@@H](C)O)O2)O1 [ionomycin]
HDAC5 phosphorylation in the absence of fluid flow [1]: induced
